# Source: PubChem BioAssay (NCI)
#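 Each compound was tested at five concentrations against cells in 96-well plates for 48 hours. Abbreviation: GI50, concentration required for 50% inhibition of growth. TGI: total growth inhibition.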
# How the values were obtained:
# Test in all cases: NCI anticancer screen, dose series, 48 h
# 786-0 renal = tested on: 786-0 renal
# A498 renal = tested on: A498 renal
# A549 NSCLC = tested on: A549 NSCLC
# ACHN renal = tested on: ACHN renal
# BT-549 breast = tested on: BT-549 breast
# CAKI-1 renal = tested on: CAKI-1 renal
# CCRF-CEM leukemia = tested on: CCRF-CEM leukemia
# COLO 205 colon = tested on: COLO 205 colon
# DU-145 prostate = tested on: DU-145 prostate
# EKVX NSCLC = tested on: EKVX NSCLC
# HCC-2998 colon = tested on: HCC-2998 colon
# HCT-116 colon = tested on: HCT-116 colon
# HCT-15 colon = tested on: HCT-15 colon
# HL-60(TB) leukemia = tested on: HL-60(TB) leukemia
# HOP-62 NSCLC = tested on: HOP-62 NSCLC
# HOP-92 NSCLC = tested on: HOP-92 NSCLC
# HS 578T breast = tested on: HS 578T breast
# HT29 colon = tested on: HT29 colon
# IGROV1 ovarian = tested on: IGROV1 ovarian
# K-562 leukemia = tested on: K-562 leukemia
# KM12 colon = tested on: KM12 colon
# LOX IMVI melanoma = tested on: LOX IMVI melanoma
# M14 melanoma = tested on: M14 melanoma
# MALME-3M melanoma = tested on: MALME-3M melanoma
# MCF7 breast = tested on: MCF7 breast
# MDA-MB-231 breast = tested on: MDA-MB-231 breast
# MDA-MB-435 = tested on: MDA-MB-435
# MDA-MB-468 breast = tested on: MDA-MB-468 breast
# MOLT-4 leukemia = tested on: MOLT-4 leukemia
# NCI-H226 lung = tested on: NCI-H226 lung
# NCI-H23 lung = tested on: NCI-H23 lung
# NCI-H460 lung = tested on: NCI-H460 lung
# NCI-H522 lung = tested on: NCI-H522 lung
# NCI/ADR-RES ovarian = tested on: NCI/ADR-RES ovarian
# OVCAR-3 ovarian = tested on: OVCAR-3 ovarian
# OVCAR-4 ovarian = tested on: OVCAR-4 ovarian
# OVCAR-5 ovarian = tested on: OVCAR-5 ovarian
# OVCAR-8 ovarian = tested on: OVCAR-8 ovarian
# PC-3 prostate = tested on: PC-3 prostate
# RPMI-8226 leukemia = tested on: RPMI-8226 leukemia
# RXF 393 renal = tested on: RXF 393 renal
# SF-268 CNS = tested on: SF-268 CNS
# SF-295 CNS = tested on: SF-295 CNS
# SF-539 CNS = tested on: SF-539 CNS
# SK-MEL-2 melanoma = tested on: SK-MEL-2 melanoma
# SK-MEL-28 melanoma = tested on: SK-MEL-28 melanoma
# SK-MEL-5 melanoma = tested on: SK-MEL-5 melanoma
# SK-OV-3 ovarian = tested on: SK-OV-3 ovarian
# SN12C renal = tested on: SN12C renal
# SNB-19 CNS = tested on: SNB-19 CNS
# SNB-75 CNS = tested on: SNB-75 CNS
# SR leukemia = tested on: SR leukemia
# SW-620 colon = tested on: SW-620 colon
# T-47D breast = tested on: T-47D breast
# TK-10 renal = tested on: TK-10 renal
# U251 CNS = tested on: U251 CNS
# UACC-257 melanoma = tested on: UACC-257 melanoma
# UACC-62 melanoma = tested on: UACC-62 melanoma
# UO-31 renal = tested on: UO-31 renal
smiles,measurement,setting,value
COc1ccc(C2(SCCNCc3cc(N(C)C)ccn3)c3ccccc3C=Cc3ccccc32)cc1,GI50,786-0 renal,873 nM
same,TGI,786-0 renal,17200 nM
same,GI50,A498 renal,11500 nM
same,TGI,A498 renal,24900 nM
same,GI50,A549 NSCLC,147 nM
same,TGI,A549 NSCLC,16800 nM
same,GI50,ACHN renal,1900 nM
same,TGI,ACHN renal,19900 nM
same,GI50,BT-549 breast,471 nM
same,TGI,BT-549 breast,9580 nM
same,GI50,CAKI-1 renal,1330 nM
same,TGI,CAKI-1 renal,19200 nM
same,GI50,CCRF-CEM leukemia,106 nM
same,TGI,CCRF-CEM leukemia,19300 nM
same,GI50,COLO 205 colon,169 nM
same,TGI,COLO 205 colon,521 nM
same,GI50,DU-145 prostate,335 nM
same,TGI,DU-145 prostate,3630 nM
same,GI50,EKVX NSCLC,382 nM
same,TGI,EKVX NSCLC,19400 nM
same,GI50,HCC-2998 colon,93.2 nM
same,TGI,HCC-2998 colon,527 nM
same,GI50,HCT-116 colon,40.4 nM
same,TGI,HCT-116 colon,11600 nM
same,GI50,HCT-15 colon,51 nM
same,TGI,HCT-15 colon,13500 nM
same,GI50,HL-60(TB) leukemia,62.3 nM
same,TGI,HL-60(TB) leukemia,13700 nM
same,GI50,HOP-62 NSCLC,528 nM
same,TGI,HOP-62 NSCLC,17900 nM
same,GI50,HOP-92 NSCLC,1310 nM
same,TGI,HOP-92 NSCLC,6250 nM
same,GI50,HS 578T breast,204 nM
same,TGI,HS 578T breast,1770 nM
same,GI50,HT29 colon,337 nM
same,TGI,HT29 colon,7000 nM
same,GI50,IGROV1 ovarian,459 nM
same,TGI,IGROV1 ovarian,19200 nM
same,GI50,K-562 leukemia,40.7 nM
same,TGI,K-562 leukemia,17400 nM
same,GI50,KM12 colon,322 nM
same,TGI,KM12 colon,11700 nM
same,GI50,LOX IMVI melanoma,557 nM
same,TGI,LOX IMVI melanoma,12300 nM
same,GI50,M14 melanoma,34.7 nM
same,TGI,M14 melanoma,621 nM
same,GI50,MALME-3M melanoma,514 nM
same,TGI,MALME-3M melanoma,15800 nM
same,GI50,MCF7 breast,40 nM
same,TGI,MCF7 breast,13200 nM
same,GI50,MDA-MB-231 breast,143 nM
same,TGI,MDA-MB-231 breast,446 nM
same,GI50,MDA-MB-435,25.3 nM
same,TGI,MDA-MB-435,63.9 nM
same,GI50,MDA-MB-468 breast,50.9 nM
same,TGI,MDA-MB-468 breast,388 nM
same,GI50,MOLT-4 leukemia,610 nM
same,TGI,MOLT-4 leukemia,12000 nM
same,GI50,NCI-H226 lung,4800 nM
same,TGI,NCI-H226 lung,19200 nM
same,GI50,NCI-H23 lung,463 nM
same,TGI,NCI-H23 lung,13900 nM
same,GI50,NCI-H460 lung,281 nM
same,TGI,NCI-H460 lung,11200 nM
same,GI50,NCI-H522 lung,90 nM
same,TGI,NCI-H522 lung,455 nM
same,GI50,NCI/ADR-RES ovarian,205 nM
same,TGI,NCI/ADR-RES ovarian,513 nM
same,GI50,OVCAR-3 ovarian,342 nM
same,TGI,OVCAR-3 ovarian,12000 nM
same,GI50,OVCAR-4 ovarian,5150 nM
same,TGI,OVCAR-4 ovarian,22000 nM
same,GI50,OVCAR-5 ovarian,364 nM
same,TGI,OVCAR-5 ovarian,12500 nM
same,GI50,OVCAR-8 ovarian,238 nM
same,TGI,OVCAR-8 ovarian,15700 nM
same,GI50,PC-3 prostate,395 nM
same,TGI,PC-3 prostate,6060 nM
same,GI50,RPMI-8226 leukemia,124 nM
same,TGI,RPMI-8226 leukemia,> 49000 nM
same,GI50,RXF 393 renal,283 nM
same,TGI,RXF 393 renal,3390 nM
same,GI50,SF-268 CNS,717 nM
same,TGI,SF-268 CNS,18500 nM
same,GI50,SF-295 CNS,268 nM
same,TGI,SF-295 CNS,14200 nM
same,GI50,SF-539 CNS,227 nM
same,TGI,SF-539 CNS,594 nM
same,GI50,SK-MEL-2 melanoma,252 nM
same,TGI,SK-MEL-2 melanoma,724 nM
same,GI50,SK-MEL-28 melanoma,5290 nM
same,TGI,SK-MEL-28 melanoma,21200 nM
same,GI50,SK-MEL-5 melanoma,319 nM
same,TGI,SK-MEL-5 melanoma,11800 nM
same,GI50,SK-OV-3 ovarian,497 nM
same,TGI,SK-OV-3 ovarian,13900 nM
same,GI50,SN12C renal,290 nM
same,TGI,SN12C renal,15200 nM
same,GI50,SNB-19 CNS,534 nM
same,TGI,SNB-19 CNS,19100 nM
same,GI50,SNB-75 CNS,176 nM
same,TGI,SNB-75 CNS,907 nM
same,GI50,SR leukemia,57 nM
same,TGI,SR leukemia,> 33200 nM
same,GI50,SW-620 colon,74.6 nM
same,TGI,SW-620 colon,12500 nM
same,GI50,T-47D breast,475 nM
same,TGI,T-47D breast,18700 nM
same,GI50,TK-10 renal,12100 nM
same,TGI,TK-10 renal,25800 nM
same,GI50,U251 CNS,62 nM
same,TGI,U251 CNS,12100 nM
same,GI50,UACC-257 melanoma,10800 nM
same,TGI,UACC-257 melanoma,23900 nM
same,GI50,UACC-62 melanoma,460 nM
same,TGI,UACC-62 melanoma,17700 nM
same,GI50,UO-31 renal,1760 nM
same,TGI,UO-31 renal,17800 nM
